Measurements from patent US9358305B2, “Targeted carriers for drug delivery across the gastrointestinal epithelium” (University of Maryland, College Park, priority 2009, dated 2016).
Ends that are not written are not given here.

Legend:
[1] = target: T1, ICAM-1 on human endothelial cells (Homo sapiens, UniProt P05362); assay: Competition of binding of anti-ICAM nanocarriers to human endothelial cells by synthetic peptides; type: cell-based
T1 construct: endogenous in cells
Text: (§1) (A) ELISA measurement of the binding of 7-mer peptide expressing phage library to immobilized recombinant ICAM-1 (consisting of the two most membrane-distal Ig domains—1 and 2—of mouse ICAM-1 fused to human Fc or hFc), versus their binding to control hFc. (B) Relative specificity and (C) relative affinity of ICAM-1-targeting peptide phages, determined by ELISA from the experiment in (A). (D) Relative binding of phages expressing 7-mer peptides to native ICAM-1 expressed on the surface of HV5 mouse endothelial cells, either control or activated with TNFalpha to mimic a disease phenotype. Binding was determined by microscopy using a fluorescently-labeled antibody to the phage capsid. The line in the graph indicates the level of binding of A1 phage to 293 cells, which are voided of ICAM-1-expression. (E, F) Endocytosis (1 h, 37° C.) of phages expressing 7-mer peptides by control mouse endothelial cells (E) or mouse endothelial cells incubated in the presence of 3 mM amiloride (F) was estimated by microscopy after staining surface-located phages with a Texas red-labeled antibody to the viral capsid, following by cell permeabilization and staining of all (surface and internalized) phages using a FITC-labeled antibody to the viral capsid. (G) Binding of FITC-labeled anti-ICAM polystyrene nanocarriers to human endothelial cells was evaluated by fluorescence microscopy after incubation with cells in the absence (100% level) or presence of anti-ICAM antibody, ICAM-1-targeting synthetic peptides, or peptides with their scramble sequence (e.g., A1sc).

ICAM-1 on HUVEC = assay: Leukocyte transmigration across TNF-activated HUVEC monolayer in transwell; type: cell-based, human; conditions: compared to albumin, scrambled peptide and LB2 controls
Experimental: Human endothelial cells (human umbilical vein endothelial cells (HUVECs)) were grown until formation of a continuous confluent monolayer in a transwell filter located between upper and lower chambers. The cells were then treated with tumor necrosis factor alpha to mimic inflammatory activation of endothelial cells and SDF1a was added to the lower chamber to generate a gradient to attract white blood cells, as during inflammation. Lymphocytes isolated from human peripheral blood were activated with interleukin 2 and added to the upper chamber above endothelial cells in the absence (control) or presence of ICAM-1-targeting peptides A1, B7, B8, B9, B10, or D6. Albumin or a peptide of scrambled sequence were used as negative controls which should not block inflammatory transmigration of leukocytes across endothelial cells. The anti-ICAM antibody LB2, which is known to block leukocyte adhesion to ICAM-1, was used as a positive control which should block such transmigration.
Leukocytes which transmigrated to the lower chamber below endothelial cells were counted to assess their transmigration. FIG. 9 provides a graph of the resulting leukocyte transmigration as a percentage of the control. The peptides annotated with an asterisk in FIG. 9 indicate that the peptide was effective in statistically significant blockage of leukocyte transmigration across endothelial cells.

human ICAM-1 = assay: Binding of clone A1 phages to human ICAM-1/hFc and HUVEC
mouse ICAM-1/hFc [2] = assay: ELISA of 7-mer peptide phage clones on immobilized mouse ICAM-1/hFc vs hFc; type: binding; conditions: phage clone
Text: as §1, with “(E, F) Endocytosis (1 h, 37° C.) of phages expressing 7-mer peptides by control mouse endothelial cells (E) or mouse endothelial cells incubated in the presence of 3 mM amiloride (F) was estimated by microscopy after staining surface-located phages with a Texas red-labeled antibody to the viral capsid, following by cell permeabilization and staining of all (surface and internalized) phages using a FITC-labeled antibody to the viral capsid.” left out

mouse ICAM-1/hFc [3] = target: T2, mouse ICAM-1/hFc (Mus musculus, UniProt P13597); assay: as above; type: binding; conditions: phage clone
T2 construct: the two most membrane-distal Ig domains—1 and 2—of mouse ICAM-1 fused to human Fc or hFc
Text: as §1, with “(E, F) Endocytosis (1 h, 37° C.) of phages expressing 7-mer peptides by control mouse endothelial cells (E) or mouse endothelial cells incubated in the presence of 3 mM amiloride (F) was estimated by microscopy after staining surface-located phages with a Texas red-labeled antibody to the viral capsid, following by cell permeabilization and staining of all (surface and internalized) phages using a FITC-labeled antibody to the viral capsid.” left out

insulin receptor = insulin receptor (Homo sapiens, UniProt P06213); conditions: reported for other strategies; cited from earlier work

T2 sequence (P13597 28-214): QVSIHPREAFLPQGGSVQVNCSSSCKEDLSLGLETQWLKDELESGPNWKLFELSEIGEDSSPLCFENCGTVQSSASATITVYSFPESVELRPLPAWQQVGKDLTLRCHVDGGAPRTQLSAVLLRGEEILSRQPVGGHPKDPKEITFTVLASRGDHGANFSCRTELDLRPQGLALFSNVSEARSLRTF
T1 sequence (P05362 28-532): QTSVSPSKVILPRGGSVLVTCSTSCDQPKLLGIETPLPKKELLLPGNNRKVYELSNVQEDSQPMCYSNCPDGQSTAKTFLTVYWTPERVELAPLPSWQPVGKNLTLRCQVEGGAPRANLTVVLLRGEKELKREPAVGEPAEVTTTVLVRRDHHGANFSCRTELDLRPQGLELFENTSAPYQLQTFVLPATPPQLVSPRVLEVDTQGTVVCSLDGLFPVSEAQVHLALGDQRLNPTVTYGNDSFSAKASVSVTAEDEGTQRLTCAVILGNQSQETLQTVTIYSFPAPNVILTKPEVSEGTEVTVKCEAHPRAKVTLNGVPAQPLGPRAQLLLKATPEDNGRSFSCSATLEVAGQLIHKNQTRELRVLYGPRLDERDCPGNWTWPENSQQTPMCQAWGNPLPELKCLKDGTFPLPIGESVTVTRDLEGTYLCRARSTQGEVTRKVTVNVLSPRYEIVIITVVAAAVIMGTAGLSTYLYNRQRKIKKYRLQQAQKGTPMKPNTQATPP

Molecule | Inhibition of binding of anti-ICAM nanocarriers to human endothelial cells [1] | Leukocyte transmigration across endothelial cells (ICAM-1 on HUVEC) | Affinity for human ICAM-1 relative to mouse ICAM-1 (human ICAM-1) | Specificity vs hFc (mouse ICAM-1/hFc [2]) | Affinity to immobilized mouse ICAM-1 over non-selected phages (mouse ICAM-1/hFc [3]) | Brain accumulation, targeting to insulin receptor (insulin receptor)
YPASYQR [A1, YPASYQR] | ~80 % inhibition | inhibit leukocyte transmigration | ~70 % affinity of mouse ICAM-1 | ~5.1 fold | ~4.7 fold | 
α-L-iduronidase: enzyme targeted to insulin receptor, reported brain delivery strategy (protein, UniProt P35475 28-653, looked up) Alpha-L-iduronidase: APHLVHVDAARALWPLRRFWRSTGFCPPLPHSQADQYVLSWDQQLNLAYVGAVPHRGIKQVRTHWLLELVTTRGSTGRGLSYNFTHLDGYLDLLRENQLLPGFELMGSASGHFTDFEDKQQVFEWKDLVSSLARRYIGRYGLAHVSKWNFETWNEPDHHDFDNVSMTMQGFLNYYDACSEGLRAASPALRLGGPGDSFHTPPRSPLSWGLLRHCHDGTNFFTGEAGVRLDYISLHRKGARSSISILEQEKVVAQQIRQLFPKFADTPIYNDEADPLVGWSLPQPWRADVTYAAMVVKVIAQHQNLLLANTTSAFPYALLSNDNAFLSYHPHPFAQRTLTARFQVNNTRPPHVQLLRKPVLTAMGLLALLDEEQLWAEVSQAGTVLDSNHTVGVLASAHRPQGPADAWRAAVLIYASDDTRAHPNRSVAVTLRLRGVPPGPGLVYVTRYLDNGLCSPDGEWRRLGRPVFPTAEQFRRMRAAEDPVAAAPRPLPAGGRLTLRPALRLPSLLLVHVCARPEKPPGQVTRLRALPLTQGQLVLVWSDEHVGSKCLWTYEIQFSQDGKAYTPVSRKPSTFNLFVFSPDTGAVSGSYRVRALDYWARPGPFSDPVPYLEVPVPRGPPSPGNP |  |  |  |  |  | 0.02 % injected dose per gram (% ID/g)
